The values that follow come from patent US20260137701A1, “CHOLESTENOIC ACID (CA) AND A SULFATED DERIVATIVE THEREOF, 3[BETA]-SULFATE-5-CHOLESTENOIC ACID (CA3S), AS ENDOGENOUS EPIGENETIC REGULATORS” (priority 2022, published 2026).

The experiment concerns HepG-2 cells. In words: HepG-2 cell death. It counts as cell-based, human.

Take `CC(CCC[C@@H](C)[C@H]1CC[C@H]2[C@@H]3CC=C4C[C@@H](O)CC[C@]4(C)[C@H]3CC[C@]12C)C(=O)O` (stereo partly drawn) [CA, 3β-hydroxy-5-cholestenoic acid]: the HepG-2 cell death entry is recorded as “induces HepG-2 cell death”.
